Experimental findings from US20080194585A1, “Fungicidal Pyrazine Derivatives” (priority 2005, published 2008) are described below.

Molecules are shown by their SMILES. Marks after values point to notes of the source that are not given here.

The subject of test [1] is Colletotrichum orbiculare. The test is described as follows: Test B: cucumber Colletotrichum anthracnose, preventive spray on cucumber seedlings. The note with it: 100 = 100% disease control; for Test B disease control rating: 40 ppm (marked *).
The next test deals with fusarium graminearium. The test is described as follows: Test I: wheat head scab, preventive spray on wheat seedlings. The note with it: 100 = 100% disease control; for pest or weed control at 200 ppm: Fusarium, in Triticum aestivum, topical, 192 h, read-out: Test I disease control rating, 200 ppm.
A further test has as its system Septoria tritici. Briefly: Test J: wheat leaf blotch, preventive spray on wheat seedlings. The format is in vivo. Particulars: 40 ppm (marked *), 100 = 100% disease control, 0 = no control; for pest or weed control at 40 ppm: Zymoseptoria tritici, 528 h, read-out: Test J disease control rating. An excerpt: A dash (-) indicates no test results.
The test system of the next test is Botrytis cinerea. Briefly: Test E: tomato botrytis, preventive spray on tomato seedlings. Particulars: for Test E disease control rating: 40 ppm (marked *), 100 = 100% disease control, 0 = no control.
For another test, the system named is Septoria nodorum. The test is described as follows: Test H: wheat glum blotch, preventive spray on wheat seedlings. The note with it: 100 = 100% disease control; for Test H disease control rating: 40 ppm (marked *).
For a further test, the system named is Rhizoctonia oryzae. The test is described as follows: Test G: turf brown patch, preventive spray on creeping bent grass seedlings. The note with it: 100 = 100% disease control; for Test G disease control rating: 40 ppm (marked *).
Another test deals with Phytophthora infestans. Briefly: whole plant or invertebrate. The format is in vivo. The note with it: for Test F disease control rating: 100 = 100% disease control; for pest or weed control at 200 ppm: Phytophthora infestans, in Solanum lycopersicum, topical, 144 h, read-out: Test F disease control rating.
The test system of the next test is Pythium aphanidermatum. Briefly: Test A: bluegrass pythium blight, preventive spray on bluegrass seedlings. Particulars: for Test A disease control rating: 100 = 100% disease control; for pest or weed control at 200 ppm: Pythium aphanidermatum, 120 h, read-out: Test A disease control rating.
A further test relates to Plasmopara viticola. Briefly: Test D: grape downy mildew, spray after inoculation of grape seedlings. It counts as in vivo. The note with it: 100 = 100% disease control; for pest or weed control at 200 ppm: Plasmopara viticola, 168 h, read-out: Test D disease control rating. An excerpt: Upon removal, disease ratings were made. […] A dash (-) indicates no test results.

Test [2] deals with Erysiphe graminis f. sp. tritici. Briefly: Test L: wheat powdery mildew, preventive spray on wheat seedlings. Particulars: 100 = 100% disease control; for Test L disease control rating: 40 ppm (marked *).
Setting [3] is: 40 ppm (marked *), 0 = no control.
[4] abbreviates: 0 = no control relative to controls.
Setting [5] is: Botrytis cinerea, in Solanum lycopersicum, topical, 72 h, read-out: Test E disease control rating.
The mark [6] stands for this setting: 200 ppm, 0 = no control relative to controls.

Description for Rhizoctonia oryzae: (the causal agent of turf brown patch) and incubated in a saturated atmosphere at 27° C. for 24 h, and then moved to a growth chamber at 27° C. for 5 days, after which disease ratings were made.
Description for Septoria nodorum: (the causal agent of wheat glum blotch) and incubated in a saturated atmosphere at 20° C. for 48 h, and then moved to a growth chamber at 22° C. for 5 days, after which disease ratings were made.
Description for fusarium graminearium: (the causal agent of wheat head scab) and incubated in a saturated atmosphere at 20° C. for 72 h, and then moved to a growth chamber at 22° C. for 5 days, after which disease ratings were made.

Regarding `Nn1c(-c2c(F)cccc2F)c(Cl)nc(-n2cccn2)c1=O` [Compound 400, 1-Amino-5-chloro-6-(2,6-difluorophenyl)-3-(1H-pyrazol-1-)-2(1H)-pyrazinone], the “Test B disease control rating” value in test [1] (0 = no control) is recorded as 0* %. The “Test I disease control rating” value in the test on fusarium graminearium (setting [3]) is on record as 0* %. Also, in the test with Septoria tritici, the “Test J disease control rating” value is reported as 0* %. In the test with Botrytis cinerea, the “Test E disease control rating” value is 0* %. Also, the “Test H disease control rating” value with Septoria nodorum (0 = no control) was 0* %. Also, in the test on Rhizoctonia oryzae (0 = no control), the “Test G disease control rating” value is 0* %. For the same molecule, in the test on Phytophthora infestans (setting [3]), the “Test F disease control rating” value is reported as 0* %. Also, the “Test A disease control rating” value with Pythium aphanidermatum (setting [3]) was 0* %. Also, the “Test D disease control rating” value in the test on Plasmopara viticola (setting [3]) is 0* %.

As for `NC(=O)c1nc(Cl)c(-c2c(F)cc(F)cc2F)n(-c2cccc(F)c2)c1=O` [Compound 414, 6-Chloro-4-(3-fluorophenyl)-3,4-dihydro-3-oxo-5-(2,4,6-trifluorophenyl)pyrazinecarboxamide], the pest or weed control at 40 ppm in test [1] (Colletotrichum orbiculare, in Cucumis sativus, 144 h, read-out: Test B disease control rating, 40 ppm (marked *), 0 = no control) came out at 0%; in test [2] (Blumeria graminis, in Triticum aestivum, 168 h, read-out: Test L disease control rating, 40 ppm (marked *), 0 = no control), 98%; in the test with Septoria tritici, 97%; in the test on Botrytis cinerea (setting [5]), 99%; in the test with Septoria nodorum (Parastagonospora nodorum, in Triticum aestivum, topical, 168 h, read-out: Test H disease control rating, 40 ppm (marked *), 0 = no control), 0%; in the test on Rhizoctonia oryzae (Waitea circinata, in Agrostis stolonifera, topical, 144 h, read-out: Test G disease control rating, 40 ppm (marked *), 0 = no control), 0%. The pest or weed control at 200 ppm was 35% in the test with fusarium graminearium (setting [4]), 85% with Phytophthora infestans, 95% in the test with Pythium aphanidermatum and 40% in the test with Plasmopara viticola (setting [6]).

Take `CCC(C)Cn1c(-c2ccc(F)cc2F)c(C)nc(C#N)c1=NC(C)=O` (centres unmarked) [Compound 430, N-[3-Cyano-6-(2,4-difluorophenyl)-5-methyl-1-(2-methylbutyl)-2(1H)-pyrazinylidene]acetamide]: the pest or weed control at 200 ppm in [1] (Colletotrichum orbiculare, in Cucumis sativus, 144 h, read-out: Test B disease control rating, 200 ppm, 0 = no control relative to controls) was 0%; in test [2] (Blumeria graminis, in Triticum aestivum, 168 h, read-out: Test L disease control rating, 200 ppm, 0 = no control relative to controls), 93%; in the test on fusarium graminearium (setting [4]) it was 0%; in the test with Botrytis cinerea (setting [5]), 96%; with Septoria nodorum (Parastagonospora nodorum, in Triticum aestivum, topical, 168 h, read-out: Test H disease control rating, 200 ppm, 0 = no control relative to controls) it was 0%; in the test on Rhizoctonia oryzae (Waitea circinata, in Agrostis stolonifera, topical, 144 h, read-out: Test G disease control rating, 200 ppm, 0 = no control relative to controls), 0%. Besides, the pest or weed control at 200 ppm with Phytophthora infestans, with Pythium aphanidermatum and with Plasmopara viticola (setting [6]) was 0% each time. Besides, in the test on Septoria tritici, the pest or weed control at 40 ppm worked out at 86%.

As to `O=c1c(-n2cccn2)nc(Cl)c(-c2c(F)cccc2F)n1-c1ccc(F)c(F)c1` [compound 388], the “Test B disease control rating” value in [1] (0 = no control) is 67* %. In [2] (0 = no control), the “Test L disease control rating” value was 0* %. In the test on fusarium graminearium (setting [3]), the “Test I disease control rating” value is reported as 0* %. Moreover, in the test with Septoria tritici, the “Test J disease control rating” value was 100* %. The “Test E disease control rating” value with Botrytis cinerea is on record as 99* %. The “Test H disease control rating” value in the test with Septoria nodorum (0 = no control) was 97* %. Moreover, the “Test G disease control rating” value in the test with Rhizoctonia oryzae (0 = no control) was 0* %. In addition, the “Test F disease control rating” value in the test with Phytophthora infestans (setting [3]) was 0* %. In addition, the “Test A disease control rating” value in the test with Pythium aphanidermatum (setting [3]) is 0* %. Besides, in the test with Plasmopara viticola (setting [3]), the “Test D disease control rating” value is reported as 0* %.

For the molecule `Cc1ccn(-c2nc(Cl)c(-c3c(F)cccc3F)n(-c3ccc(F)c(F)c3)c2=O)n1` [compound 389], the “Test B disease control rating” value in [1] (0 = no control) is 98* %. Also, the “Test L disease control rating” value in test [2] (0 = no control) is 0* %. In the test on fusarium graminearium (setting [3]), the “Test I disease control rating” value is 0* %. In the test with Septoria tritici, the “Test J disease control rating” value is on record as 100* %. Further, the “Test E disease control rating” value in the test on Botrytis cinerea was 99* %. Further, the “Test H disease control rating” value in the test with Septoria nodorum (0 = no control) is reported as 94* %. For the same molecule, in the test on Rhizoctonia oryzae (0 = no control), the “Test G disease control rating” value is 31* %. Besides, the “Test F disease control rating” value in the test on Phytophthora infestans (setting [3]) is reported as 0* %. The “Test A disease control rating” value in the test with Pythium aphanidermatum (setting [3]) is on record as 0* %. In addition, the “Test D disease control rating” value in the test with Plasmopara viticola (setting [3]) is reported as 0* %.

Regarding `CCCn1c(-c2c(F)cc(F)cc2F)c(Cl)nc(C(N)=O)c1=O` [compound 413], in test [1] (0 = no control), the “Test B disease control rating” value was 0* %. Moreover, the “Test L disease control rating” value in test [2] (0 = no control) is listed as 98* %. Besides, in the test with fusarium graminearium (setting [6]), the “Test I disease control rating” value is 0%. Further, in the test on Septoria tritici, the “Test J disease control rating” value is 93* %. In the test with Botrytis cinerea, the “Test E disease control rating” value is on record as 99* %. In addition, the “Test H disease control rating” value with Septoria nodorum (0 = no control) is on record as 99* %. For the same molecule, the “Test G disease control rating” value with Rhizoctonia oryzae (0 = no control) is on record as 0* %. In addition, the “Test F disease control rating” value in the test with Phytophthora infestans (setting [6]) is 95%. Besides, the “Test A disease control rating” value in the test with Pythium aphanidermatum (setting [6]) stood at 68%. The “Test D disease control rating” value in the test with Plasmopara viticola (setting [6]) is 64%.
